In the supplement of paper PMC8671470:

Tests used:
Conditions in all cases: 72 h
Mono-Mac-6 [1] = tested on: Mono-Mac-6
Procedure, shortened: (§1)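 Fifteen myeloid leukaemia cell lines were seeded in RPMI 1640 at densities titrated to the linear growth range and placed in 384-well plates with acoustically pre-printed compounds at five tenfold doses from 1 to 10,000 nM, in duplicate. After 72 h at 37 °C with 5% CO2, luminescent ATP viability was normalised to vehicle and to a positive control at 10 µM, and curves were fitted with a four-parameter log-logistic model. The IC50 was obtained from these fits.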

ML-2 = tested on: ML-2
Procedure, shortened: as §1

KU-812 [2] = tested on: KU-812
Procedure, shortened: as §1

NOMO-1 [3] = tested on: NOMO-1
Procedure, shortened: as §1

THP-1 [4] = tested on: THP-1
Procedure, shortened: as §1

HEL = tested on: HEL
Procedure, shortened: as §1

SHI-1 [5] = tested on: SHI-1
Procedure, shortened: as §1

LAMA-84 [6] = tested on: LAMA-84
Procedure, shortened: as §1

K-562 [7] = tested on: K-562
Procedure, shortened: as §1

BV-173 [8] = tested on: BV-173
Procedure, shortened: as §1

MOLM-13 [9] = tested on: MOLM-13
Procedure, shortened: as §1

KG-1 = tested on: KG-1
Procedure, shortened: as §1

MV4-11 [10] = tested on: MV4-11
Procedure, shortened: as §1

KCL-22 = tested on: KCL-22
Procedure, shortened: as §1

HL-60 [11] = tested on: HL-60
Procedure, shortened: as §1

[12] = tested on: myeloid leukemia patient primary cells Pat.5; experiment: area under dose-response curve (viability, 1 nM-10 uM) (fraction (0-1)); higher = more sensitive
Procedure: (§2)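 AUC (0–1, higher = more sensitive) of the 5-point dose–response (1 nM–10 µM, 72 h, CellTiter-Glo) in primary AML/CML patient mononuclear cells. 0.030103 is the floor for inactive compounds.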

[13] = tested on: myeloid leukemia patient primary cells Pat.8; experiment: as above
Procedure: as §2

[14] = tested on: myeloid leukemia patient primary cells Pat.10; experiment: as above
Procedure: as §2

[15] = tested on: myeloid leukemia patient primary cells Pat.1; experiment: as above
Procedure: as §2

[16] = tested on: myeloid leukemia patient primary cells Pat.3; experiment: as above
Procedure: as §2

[17] = tested on: myeloid leukemia patient primary cells Pat.14; experiment: as above
Procedure: as §2

[18] = tested on: myeloid leukemia patient primary cells Pat.11; experiment: as above
Procedure: as §2

[19] = tested on: myeloid leukemia patient primary cells Pat.13; experiment: as above
Procedure: as §2

[20] = tested on: myeloid leukemia patient primary cells Pat.6; experiment: as above
Procedure: as §2

[21] = tested on: myeloid leukemia patient primary cells Pat.7; experiment: as above
Procedure: as §2

[22] = tested on: myeloid leukemia patient primary cells Pat.12; experiment: as above
Procedure: as §2

[23] = tested on: myeloid leukemia patient primary cells Pat.4; experiment: as above
Procedure: as §2

[24] = tested on: myeloid leukemia patient primary cells Pat.2; experiment: as above
Procedure: as §2

[25] = tested on: myeloid leukemia patient primary cells Pat.9; experiment: as above
Procedure: as §2

[26] = tested on: myeloid leukemia patient primary cells Pat.15; experiment: as above
Procedure: as §2

HL-60 [27] = experiment: area under dose-response curve (viability, 1 nM-10 uM) (fraction (0-1)); higher = more sensitive
Procedure, shortened: (§3)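 Four-parameter log-logistic fits in drc and PharmacoGx supplied area under the curve where it is given. Underlying viability came from CellTiter-Glo, normalised to DMSO and proteasome-inhibitor wells, with the proteasome inhibitor at 10 μM. HL-60 cells in RPMI 1640 plus 10% FBS had been rescreened against the full library at five tenfold concentrations of 1–10,000 nM, in duplicate on 384-well plates, with DMSO or 100 nM of one of three metabolic inhibitors, for 72 h at 37 °C, 5% CO2.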

HL-60 [28] = experiment: cell viability (% survival relative to DMSO control); higher = less cytotoxic
Procedure, shortened: as §3

Mono-Mac-6 [29] = experiment: cell viability (% survival relative to DMSO control, bortezomib = 0%); higher = less cytotoxic
Procedure, shortened: (§4)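 Reported values are percent survival from duplicate wells, averaged. Fifteen myeloid leukaemia cell lines were treated in 384-well plates with compounds at 1, 10, 100, 1000 or 10000 nM for 72 h at 37 °C in 5% CO2. Signals from CellTiter-Glo luminescence were scaled with vehicle as 100% and a 10 µM positive control as 0%.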

KU-812 [30] = experiment: as above
Procedure, shortened: as §4

NOMO-1 [31] = experiment: as above
Procedure, shortened: as §4

THP-1 [32] = experiment: as above
Procedure, shortened: as §4

SHI-1 [33] = experiment: as above
Procedure, shortened: as §4

LAMA-84 [34] = experiment: as above
Procedure, shortened: as §4

K-562 [35] = experiment: as above
Procedure, shortened: as §4

BV-173 [36] = experiment: as above
Procedure, shortened: as §4

MOLM-13 [37] = experiment: as above
Procedure, shortened: as §4

MV4-11 [38] = experiment: as above
Procedure, shortened: as §4

HL-60 [39] = experiment: as above
Procedure, shortened: as §4

CCC(C)(C)C(=O)O[C@H]1C[C@@H](C)C=C2C=C[C@H](C)[C@H](CC[C@@H]3C[C@@H](O)CC(=O)O3)[C@H]21 [Simvastatin]
Conditions | IC50 (cell viability) [µM]
BV-173 [8] | > 10
HEL | > 10
HL-60 [11] | > 10
K-562 [7] | > 10
KCL-22 | > 10
KG-1 | > 10
KU-812 [2] | > 10
LAMA-84 [6] | > 10
ML-2 | > 10
MOLM-13 [9] | > 10
MV4-11 [10] | > 10
Mono-Mac-6 [1] | > 10
NOMO-1 [3] | > 10
SHI-1 [5] | > 10
THP-1 [4] | > 10

CS(=O)(=O)N1CCN(Cc2cc3nc(-c4cccc5[nH]ncc45)nc(N4CCOCC4)c3s2)CC1 [Pictilisib]
Conditions | IC50 (cell viability) [µM] | area under dose-response curve
BV-173 [8] | > 10 | –
HEL | > 10 | –
HL-60 [11] | 0.0159 | –
K-562 [7] | 1.27 | –
KCL-22 | > 10 | –
KG-1 | > 10 | –
KU-812 [2] | > 10 | –
LAMA-84 [6] | > 10 | –
ML-2 | 9.06 | –
MOLM-13 [9] | 0.969 | –
MV4-11 [10] | 1.19 | –
Mono-Mac-6 [1] | > 10 | –
NOMO-1 [3] | > 10 | –
SHI-1 [5] | 0.987 | –
THP-1 [4] | > 10 | –
[12] | – | 0.384
[13] | – | 0.536
[14] | – | 0.456
[15] | – | 0.538
[16] | – | 0.519
[17] | – | 0.529
[18] | – | 0.0959
[19] | – | < 0.0301
[20] | – | 0.0368
[21] | – | 0.507
[22] | – | < 0.0301
[23] | – | 0.294
[24] | – | < 0.0301
[25] | – | 0.257
[26] | – | 0.439

N#Cc1ccnc(N2C(=O)CC[C@H]2C(=O)N(c2cncc(F)c2)[C@H](C(=O)NC2CC(F)(F)C2)c2ccccc2Cl)c1 [AG-120]
HL-60 [27]
Conditions | area under dose-response curve
co-treatment: AZD3965 100 nM | < 0.0301
co-treatment: DMSO vehicle | < 0.0301
co-treatment: GSK2194069 100 nM | < 0.0301
co-treatment: pictilisib 100 nM | < 0.0301

cell viability [%], HL-60 [28]
Conditions | 0.001 µM | 0.01 µM | 0.1 µM | 1 µM | 10 µM
co-treatment: AZD3965 100 nM | 102 | 86.8 | 113 | 91 | 102
co-treatment: DMSO vehicle | 104 | 98.74 | 99.6 | 97.6 | 99.14
co-treatment: GSK2194069 100 nM | 93.1 | 101 | 99.8 | 92.3 | 88.3
co-treatment: pictilisib 100 nM | 92.9 | 98.2 | 104 | 77.1 | 98.6

O=C(Nc1ccccc1)c1cc([N+](=O)[O-])ccc1Cl [GW9662]
cell viability [%]
Conditions | 1 nM | 10 nM | 100 nM | 1000 nM | 10000 nM
BV-173 [36] | 103 | 95.7 | 113 | 91.8 | 56.6
HL-60 [39] | 90.2 | 98.8 | 98.2 | 106 | 72.6
K-562 [35] | 112 | 102 | 105 | 108 | 65.4
KU-812 [30] | 97.9 | 102 | 113 | 87.3 | 71.7
LAMA-84 [34] | 98.7 | 95.9 | 110 | 101 | 90.5
MOLM-13 [37] | 109 | 97 | 95.5 | 122 | 80.8
MV4-11 [38] | 102 | 93.3 | 108 | 115 | 42.9
Mono-Mac-6 [29] | 101 | 107 | 110 | 112 | 115
NOMO-1 [31] | 95.6 | 96.4 | 97.3 | 102 | 91.8
SHI-1 [33] | 111 | 104 | 103 | 107 | 93.8
THP-1 [32] | 103 | 101 | 102 | 93.7 | 77.2

Conditions | IC50 (cell viability) [µM]
BV-173 [8] | 8.53
HL-60 [11] | > 10
K-562 [7] | > 10
KU-812 [2] | > 10
LAMA-84 [6] | > 10
MOLM-13 [9] | > 10
MV4-11 [10] | 8.81
Mono-Mac-6 [1] | > 10
NOMO-1 [3] | > 10
SHI-1 [5] | > 10
THP-1 [4] | > 10
